Test results as given in patent US12617797B2, “Substituted pyrazolo [1,5-a]pyrimidines having multimodal activity against pain” (ESTEVE PHARMACEUTICALS, S.A., priority 2020, dated 2026).

How the values were obtained:
Human σ1 receptor = target: T1, Human σ1 receptor (Homo sapiens, UniProt Q99720); assay: Human σ1 receptor radioligand assay ([3H](+)-pentazocine binding, transfected HEK-293 membranes); details: binding to σ1 receptor expressed as Ki; + also covers inhibition between 1% and 50%; read-out: σ-1 binding
T1 construct: expressed in transfected cells; host or cells: HEK-293
T1 sequence (Q99720 whole entry): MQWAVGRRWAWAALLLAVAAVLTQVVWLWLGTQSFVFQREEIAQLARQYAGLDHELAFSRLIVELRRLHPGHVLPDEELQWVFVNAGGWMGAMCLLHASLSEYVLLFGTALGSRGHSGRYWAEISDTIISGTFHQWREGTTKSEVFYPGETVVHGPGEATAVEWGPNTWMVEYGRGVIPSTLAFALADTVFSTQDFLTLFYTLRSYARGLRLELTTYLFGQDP
Method in brief: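 Ki was derived from five test concentrations, or % inhibition was measured at a single 1 or 10 μM dose, against 5 nM [3H](+)-pentazocine. Incubation was 120 min at 37° C in 50 mM Tris-HCl pH 8 with 7 μg HEK-293 membranes, and 10 μM haloperidol set non-specific binding. Bound radioactivity was counted after filtration.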

[1] = target: Human α2δ-1 subunit of Cav2.2 calcium channel (Homo sapiens, UniProt P54289); assay: Human α2δ-1 subunit of Cav2.2 calcium channel assay ([3H]-gabapentin binding); details: binding to the α2δ-1 subunit of voltage-gated calcium channels expressed as Ki; + also covers inhibition between 1% and 50%
Human α2δ-1 subunit of Cav2.2 calcium channel, sequence (P54289 25-1103): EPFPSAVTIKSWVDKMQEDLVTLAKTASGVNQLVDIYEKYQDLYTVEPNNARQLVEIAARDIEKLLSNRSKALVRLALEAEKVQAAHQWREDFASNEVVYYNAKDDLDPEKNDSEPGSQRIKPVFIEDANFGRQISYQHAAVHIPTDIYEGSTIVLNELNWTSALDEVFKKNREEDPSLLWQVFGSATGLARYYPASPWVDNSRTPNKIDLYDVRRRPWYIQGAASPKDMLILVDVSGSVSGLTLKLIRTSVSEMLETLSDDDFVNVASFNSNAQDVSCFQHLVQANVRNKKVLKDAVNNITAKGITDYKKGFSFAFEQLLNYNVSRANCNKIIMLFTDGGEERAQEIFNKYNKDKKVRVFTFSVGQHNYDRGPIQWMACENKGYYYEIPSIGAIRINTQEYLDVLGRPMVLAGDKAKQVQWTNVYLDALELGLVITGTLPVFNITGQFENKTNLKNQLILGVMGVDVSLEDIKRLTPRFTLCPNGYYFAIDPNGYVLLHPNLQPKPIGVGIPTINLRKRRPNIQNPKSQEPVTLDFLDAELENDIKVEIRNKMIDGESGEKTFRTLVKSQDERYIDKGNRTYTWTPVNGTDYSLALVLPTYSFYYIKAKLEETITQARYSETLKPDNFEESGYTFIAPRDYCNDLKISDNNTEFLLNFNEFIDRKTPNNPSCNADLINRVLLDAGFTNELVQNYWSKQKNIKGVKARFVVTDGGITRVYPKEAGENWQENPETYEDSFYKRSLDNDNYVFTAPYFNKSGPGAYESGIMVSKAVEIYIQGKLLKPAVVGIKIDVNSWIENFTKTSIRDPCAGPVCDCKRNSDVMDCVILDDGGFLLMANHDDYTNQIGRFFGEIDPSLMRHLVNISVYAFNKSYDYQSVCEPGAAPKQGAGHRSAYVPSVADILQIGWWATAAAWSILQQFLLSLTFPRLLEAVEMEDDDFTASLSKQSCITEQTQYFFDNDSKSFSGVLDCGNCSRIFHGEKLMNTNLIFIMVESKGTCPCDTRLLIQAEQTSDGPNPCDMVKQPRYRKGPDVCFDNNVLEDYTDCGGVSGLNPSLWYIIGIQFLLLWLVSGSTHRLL
Method in brief: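 Displacement of 15 nM [3H]-gabapentin from human α2δ-1-enriched membranes (Hepes-KOH 10 mM, pH 7.4; 27 °C, 60 min) read by filter binding and radioactivity counting. Values are single-point % inhibition (1 or 10 μM) or five-point Ki; 10 μM pregabalin sets NSB.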

Cc1nn2c([C@H]3CCCN(Cc4ccc(Cl)cc4)C3)ccnc2c1CNCC1CCOCC1 [Example 199, (S)-1-(7-(1-(4-Chlorobenzyl)piperidin-3-yl)-2-methylpyrazolo[1,5-a]pyrimidin-3-yl)-N-((tetrahydro-2H-pyran-4-yl)methyl)methanamine]
Ki (Human σ1 receptor): < 500 nM
Ki [1]: < 500 nM

Cc1nn2c([C@@H]3CCCN(Cc4ccc(Cl)cc4)C3)ccnc2c1CNCC1CCOCC1 [Example 200, (R)-1-(7-(1-(4-chlorobenzyl)piperidin-3-yl)-2-methylpyrazolo[1,5-a]pyrimidin-3-yl)-N-((tetrahydro-2H-pyran-4-yl)methyl)methanamine]
Ki (Human σ1 receptor): < 500 nM
Ki [1]: > 5000 nM

Cc1nn2c([C@@H]3CCCN(Cc4ccc(Cl)cc4)C3)ccnc2c1CNC[C@H]1CCOC1 [Example 202, 1-(7-((R)-1-(4-chlorobenzyl)piperidin-3-yl)-2-methylpyrazolo[1,5-a]pyrimidin-3-yl)-N—(((R)-tetrahydrofuran-3-yl)methyl)methanamine]
Ki (Human σ1 receptor): < 500 nM
Ki [1]: < 500 nM

Cc1nn2c([C@H]3CCCN(Cc4ccc(Cl)cc4)C3)ccnc2c1CNC[C@@H]1CCOC1 [Example 203, 1-(7-((S)-1-(4-chlorobenzyl)piperidin-3-yl)-2-methylpyrazolo[1,5-a]pyrimidin-3-yl)-N—(((S)-tetrahydrofuran-3-yl)methyl)methanamine]
Ki (Human σ1 receptor): < 500 nM
Ki [1]: 500 to 5000 nM

Cc1nn2c([C@H]3CCCN(Cc4ccccc4)C3)ccnc2c1CNCC1CCOCC1 [Example 204, (S)-1-(7-(1-Benzylpiperidin-3-yl)-2-methylpyrazolo[1,5-a]pyrimidin-3-yl)-N-((tetrahydro-2H-pyran-4-yl)methyl)methanamine]
Ki (Human σ1 receptor): < 500 nM
Ki [1]: 500 to 5000 nM

Cc1nn2c([C@@H]3CCCN(Cc4ccccc4)C3)ccnc2c1CNCC1CCOCC1 [Example 205, (R)-1-(7-(1-benzylpiperidin-3-yl)-2-methylpyrazolo[1,5-a]pyrimidin-3-yl)-N-((tetrahydro-2H-pyran-4-yl)methyl)methanamine]
Ki (Human σ1 receptor): < 500 nM
Ki [1]: > 5000 nM

Cc1nn2c([C@H]3CCCN(Cc4ccc(F)cc4)C3)ccnc2c1CNCC1CCOCC1 [Example 206, (S)-1-(7-(1-(4-Fluorobenzyl)piperidin-3-yl)-2-methylpyrazolo[1,5-a]pyrimidin-3-yl)-N-((tetrahydro-2H-pyran-4-yl)methyl)methanamine]
Ki (Human σ1 receptor): < 500 nM
Ki [1]: < 500 nM

Cc1nn2c([C@@H]3CCCN(Cc4ccc(F)cc4)C3)ccnc2c1CNCC1CCOCC1 [Example 207, (R)-1-(7-(1-(4-fluorobenzyl)piperidin-3-yl)-2-methylpyrazolo[1,5-a]pyrimidin-3-yl)-N-((tetrahydro-2H-pyran-4-yl)methyl)methanamine]
Ki (Human σ1 receptor): < 500 nM
Ki [1]: > 5000 nM

Cc1nn2c([C@H]3CCCN(Cc4cccc(C#N)c4)C3)ccnc2c1CNCC1CCOCC1 [Example 208, (S)-3-((3-(2-Methyl-3-((((tetrahydro-2H-pyran-4-yl)methyl)amino)methyl)pyrazolo[1,5-a]pyrimidin-7-yl)piperidin-1-yl)methyl)benzonitrile]
Ki (Human σ1 receptor): < 500 nM
Ki [1]: > 5000 nM

Cc1nn2c([C@@H]3CCCN(Cc4cccc(C#N)c4)C3)ccnc2c1CNCC1CCOCC1 [Example 209, (R)-3-((3-(2-methyl-3-((((tetrahydro-2H-pyran-4-yl)methyl)amino)methyl)pyrazolo[1,5-a]pyrimidin-7-yl)piperidin-1-yl)methyl)benzonitrile]
Ki (Human σ1 receptor): < 500 nM
Ki [1]: > 5000 nM

Cc1nn2c([C@@H]3CCCN(Cc4ccc(Cl)cc4)C3)ccnc2c1CN(C)C [Example 211, (R)-1-(7-(1-(4-chlorobenzyl)piperidin-3-yl)-2-methylpyrazolo[1,5-a]pyrimidin-3-yl)-N,N-dimethylmethanamine]
Ki (Human σ1 receptor): < 500 nM
Ki [1]: > 5000 nM

CNCc1c(C)nn2c([C@@H]3CCCN(Cc4ccc(Cl)cc4)C3)ccnc12 [Example 212, (R)-1-(7-(1-(4-Chlorobenzyl)piperidin-3-yl)-2-methylpyrazolo[1,5-a]pyrimidin-3-yl)-N-methylmethanamine]
Ki (Human σ1 receptor): < 500 nM
Ki [1]: > 5000 nM

CNCc1c(C)nn2c([C@H]3CCCN(Cc4ccc(Cl)cc4)C3)ccnc12 [Example 213, (S)-1-(7-(1-(4-chlorobenzyl)piperidin-3-yl)-2-methylpyrazolo[1,5-a]pyrimidin-3-yl)-N-methylmethanamine]
Ki (Human σ1 receptor): < 500 nM
Ki [1]: 500 to 5000 nM

Clc1nn2c([C@H]3CCCN(Cc4ccccc4)C3)ccnc2c1CNCC1CCOCC1 [Example 214]
Ki (Human σ1 receptor): < 500 nM
Ki [1]: 500 to 5000 nM

Clc1nn2c([C@@H]3CCCN(Cc4ccccc4)C3)ccnc2c1CNCC1CCOCC1 [Example 215]
Ki (Human σ1 receptor): < 500 nM
Ki [1]: > 5000 nM

CC(=O)N1CCC(CNCc2c(Cl)nn3c([C@H]4CCCN(Cc5ccccc5)C4)ccnc23)CC1 [Example 216, (S)-1-(4-((((7-(1-Benzylpiperidin-3-yl)-2-chloropyrazolo[1,5-a]pyrimidin-3-yl)methyl)amino)methyl)piperidin-1-yl)ethan-1-one]
Ki (Human σ1 receptor): < 500 nM
Ki [1]: < 500 nM

Cc1nn2c(C3CCCN(Cc4ccc(Cl)cc4)C3)ccnc2c1CNCC1CCN(C(N)=O)CC1 (stereo not drawn) [Example 218, 4-((((7-(1-(4-Chlorobenzyl)piperidin-3-yl)-2-methylpyrazolo[1,5-a]pyrimidin-3-yl)methyl)amino)methyl)piperidine-1-carboxamide]
Ki (Human σ1 receptor): 500 to 1000 nM
Ki [1]: 500 to 5000 nM

Cc1nn2c(C3CCCN(Cc4ccc(Cl)cc4)C3)ccnc2c1CN (stereo not drawn) [Example 219, (7-(1-(4-Chlorobenzyl)piperidin-3-yl)-2-methylpyrazolo[1,5-a]pyrimidin-3-yl)methanamine]
Ki (Human σ1 receptor): 500 to 1000 nM
Ki [1]: 500 to 5000 nM

Cc1nn2c(C3CCCN(Cc4ccccc4)C3)ccnc2c1CNCC1C[C@@H](C)O[C@@H](C)C1 (stereo partly drawn) [Example 220, 1-(7-(1-Benzylpiperidin-3-yl)-2-methylpyrazolo[1,5-a]pyrimidin-3-yl)-N-(((2R,6S)-2,6-dimethyltetrahydro-2H-pyran-4-yl)methyl)methanamine]
Ki (Human σ1 receptor): 500 to 1000 nM
Ki [1]: 500 to 5000 nM

Cc1nn2c([C@@H]3CCCN(Cc4ccc(Cl)cc4)C3)ccnc2c1CNC[C@H]1CCOC(C)(C)C1 [Example 222]
Ki (Human σ1 receptor): < 500 nM
Ki [1]: > 5000 nM

Cc1nn2c([C@H]3CCCN(Cc4ccc(Cl)cc4)C3)ccnc2c1CNC[C@@H]1CCOC(C)(C)C1 [Example 223]
Ki (Human σ1 receptor): < 500 nM
Ki [1]: > 5000 nM

Cc1nn2c([C@@H]3CCCN(Cc4ccc(Cl)cc4)C3)ccnc2c1CN[C@@H](C)C1CCOCC1 [Example 225, (S)—N-((7-((R)-1-(4-chlorobenzyl)piperidin-3-yl)-2-methylpyrazolo[1,5-a]pyrimidin-3-yl)methyl)-1-(tetrahydro-2H-pyran-4-yl)ethan-1-amine]
Ki (Human σ1 receptor): < 500 nM
Ki [1]: > 5000 nM

Cc1nn2c([C@H]3CCCN(Cc4ccc(Cl)cc4)C3)ccnc2c1CN[C@H](C)C1CCOCC1 [Example 226, (R)—N-((7-((S)-1-(4-chlorobenzyl)piperidin-3-yl)-2-methylpyrazolo[1,5-a]pyrimidin-3-yl)methyl)-1-(tetrahydro-2H-pyran-4-yl)ethan-1-amine]
Ki (Human σ1 receptor): < 500 nM
Ki [1]: 500 to 5000 nM

Cc1nn2c([C@@H]3CCCN(Cc4ccc(Cl)cc4)C3)ccnc2c1CN(C)CC1CC1 [Example 227, (R)-1-(7-(1-(4-Chlorobenzyl)piperidin-3-yl)-2-methylpyrazolo[1,5-a]pyrimidin-3-yl)-N-(cyclopropylmethyl)-N-methylmethanamine]
Ki (Human σ1 receptor): < 500 nM
Ki [1]: > 5000 nM

Cc1nn2c([C@H]3CCCN(Cc4ccc(Cl)cc4)C3)ccnc2c1CN(C)CC1CC1 [Example 228, (S)-1-(7-(1-(4-chlorobenzyl)piperidin-3-yl)-2-methylpyrazolo[1,5-a]pyrimidin-3-yl)-N-(cyclopropylmethyl)-N-methylmethanamine]
Ki (Human σ1 receptor): < 500 nM
Ki [1]: < 500 nM

Cc1nn2c(C3CCCN(Cc4ccc(Cl)cc4)C3)ccnc2c1CN(C)Cc1c(F)cccc1F (stereo not drawn) [Example 229, 1-(7-(1-(4-Chlorobenzyl)piperidin-3-yl)-2-methylpyrazolo[1,5-a]pyrimidin-3-yl)-N-(2,6-difluorobenzyl)-N-methylmethanamine]
Ki (Human σ1 receptor): 500 to 1000 nM
Ki [1]: 500 to 5000 nM

Cc1nn2c(C3CCCN(Cc4ccc(Cl)cc4)C3)ccnc2c1CN(C)Cc1ccc(CO)cc1 (stereo not drawn) [Example 230, (4-((((7-(1-(4-Chlorobenzyl)piperidin-3-yl)-2-methylpyrazolo[1,5-a]pyrimidin-3-yl)methyl)(methyl)amino)methyl)phenyl)methanol]
Ki (Human σ1 receptor): < 500 nM
Ki [1]: 500 to 5000 nM

Cc1nn2c(C3CCCN(Cc4ccc(Cl)cc4)C3)ccnc2c1CN(C)CC1CCOCC1 (stereo not drawn) [Example 231, 1-(7-(1-(4-Chlorobenzyl)piperidin-3-yl)-2-methylpyrazolo[1,5-a]pyrimidin-3-yl)-N-methyl-N-((tetrahydro-2H-pyran-4-yl)methyl)methanamine]
Ki (Human σ1 receptor): < 500 nM
Ki [1]: 500 to 5000 nM

Cc1nn2c(C3CCCN(Cc4ccc(Cl)cc4)C3)ccnc2c1CN(CC1CCOCC1)C(C)C (stereo not drawn) [Example 232, N-((7-(1-(4-Chlorobenzyl)piperidin-3-yl)-2-methylpyrazolo[1,5-a]pyrimidin-3-yl)methyl)-N-((tetrahydro-2H-pyran-4-yl)methyl)propan-2-amine]
Ki (Human σ1 receptor): < 500 nM
Ki [1]: > 5000 nM

Cc1nn2c(C3CCCN(Cc4ccccc4)C3)ccnc2c1CN(CC1C[C@@H](C)O[C@@H](C)C1)C(C)C (stereo partly drawn) [Example 233, N-((7-(1-Benzylpiperidin-3-yl)-2-methylpyrazolo[1,5-a]pyrimidin-3-yl)methyl)-N-(((2R,6S)-2,6-dimethyltetrahydro-2H-pyran-4-yl)methyl)propan-2-amine]
Ki (Human σ1 receptor): 500 to 1000 nM
Ki [1]: > 5000 nM
